Columns and labels:
astrocytes cultures = assay: ROS formation (H2DCF-DA kit); assay type: cell-based, mouse; settings: various concentrations, 2 h
Experimental: ROS formation has been determined as described [Yang J et al, Lactate promotes plasticity gene expression by potentiating NMDA signalling in neurons. Proc Natl Acad Sci USA. 2014. 111(33):12228-33] using a H2DCF-DA kit (ThermoFisher) as recommended by the manufacturer. Briefly, astrocytes cultures were washed twice with HBSS and incubated for 60 min in 50 μM in HBSS at 37° C. and 5% CO2 in the presence of the dye. After two washing steps with prewarmed HBSS the cells were treated with increasing concentrations of 100 μL Compound A at 37° C. and 5% CO2. Fluorescence intensity was measured after 2 h from the same plate using a fluorescence microplate reader (Safire 2; Tecan) at an excitation wavelength of 485 nm and an emission wavelength of 528 nm.
To assess the effect of Compound A on ROS accumulation in primary neuron cultures, the cells were treated with various concentration of Compound A for 2 hours and ROS was measured as described (FIG. 4).

TNF-α = assay: LPS stimulation of BV-2 microglia: TNF-α; assay type: cell-based, murine; settings: between 0.3 and 3 μM, BV2, LPS 500 ng/ml, 24 h
Experimental: (§1) The murine microglial cell line BV-2 was grown in DMEM medium supplemented with 10% FCS, 1% penicillin/streptomycin and 2 mM L-glutamine (culture medium). For LPS stimulation assay, 10000 BV-2 cells per well (uncoated 96 well plates) were plated and after 24 hours, medium was changed to serum-free treatment medium (DMEM, 2 mM L-glutamine) and cells were maintained in treatment medium for the remaining culture period. 1 h after changing cells to treatment medium, the test items were added 1 hour before LPS stimulation (Sigma-Aldrich; L6529; 1 mg/ml stock in ddH2O, final concentration in well: 500 ng/ml (dilutions in medium)). Cells treated with vehicle, cells treated with LPS alone, as well as cells treated with LPS plus reference dexamethasone at 10 μM item served as controls.
(§2) Following 24 h of stimulation, cell supernatants were collected for the NO, and cytokine measurements. Levels of 2 cytokines (TNF-α, IL-6) were measured by an immunosorbent assay (U-PLEX Custom […] Cytokine, Mesoscale Discovery) according to the instructions of the manufacturer and evaluated in comparison to calibration curves provided in the kit. […] Absorbance was measured at 570 nm. Nitrosative stress was evaluated in the study samples in comparison to a NaNO2 standard curve. […]

NO = assay: LPS stimulation of BV-2 microglia: NO (Griess reagent); assay type: cell-based, murine; settings: between 0.3 and 3 μM, BV2, LPS 500 ng/ml, 24 h
Experimental: as §1, §2

[1] = tested on: human hepatocytes from pooled donor lot; assay: Hepatic toxicity: cell viability by ATP content; assay type: cell-based; settings: 1 to 100 μM, 24 h exposure
Experimental: Cryopreserved human hepatocytes from pooled donor lot (Bioreclamation IVT) were seeded on collagen I coated 96-well plates (Corning Biocoat) at 0.55×10^5 cells per well in 120 μl InVitroGRO™ CP medium (BioIVT), including additives Torpedo Antibiotic mix (BioIVT). After cell attachment (4-6 hours post seeding) cell culture medium was replaced with fresh medium and incubated for 72 hours at 37° C. under 5% CO2. Thereafter, hepatocytes were exposed to test or control compounds in 100 μl of InVitroGRO™ HI medium, including additives Torpedo Antibiotic mix at concentrations presented below. Cytotoxicity and cell viability were evaluated based on LDH release in medium and ATP content in the cells after 24 hours exposure phase.
Cytotoxicity potency of test compounds SND118, SND121, SND122 and SND123 was assayed in human hepatocytes from pooled donor lot at three concentrations; 1, 10 and 100 μM. Cytotoxicity was assayed from medium samples after 24 h exposure period with test compounds by measuring membrane integrity (LDH leakage), coupled to fluorescent signal. In parallel, cell viability was assayed by the means of ATP content, indicating the metabolically competent cell activity. LDH and ATP assay kits were sourced from Promega. ATP content was measured based on luciferase catalysed reaction generating stable bioluminescent signal. […]

[2] = Metabolic stability in mouse plasma; assay type: in vitro ADME, CD1-mouse; settings: 1 μM
Experimental: (§3) The compounds were incubated with plasma, and the collected samples were analyzed by UPLC/HR-MS to measure stability of the compounds.
(§4) Sample type: plasma; Species: CD1-mouse (male), human (mixed gender); Time points: 0, 20, 40, 60, 120 min;
(§5) Spiking solvent: 50% DMSO ( 1/100 to incubation); Quenching solvent: 2-fold volume of 100% ACN; Control: propanthelin bromide (human, mouse)
(§6) The study compounds were incubated with plasma as specified above. The collected samples were stored at −20 C until thawed at room temperature, centrifuged and analyzed using UPLC/PDA with high resolution mass spectrometry (QE-Orbitrap-MS on DDI mode) to monitor substrate depletion and metabolite formation. The analytical method was optimised by using the parent compounds for optimum chromatographic properties (peak shape and retention) and mass spectrometric ionisation. Disappearance was based on relative LC/MS peak areas (0 min=100%) and will be used to calculate half-lives.

[3] = Metabolic stability in human plasma; assay type: in vitro ADME; settings: 1 μM
Experimental: as §3, §4, §5, §6

[4] = Metabolic stability in mouse intestine microsomes; assay type: in vitro ADME; settings: male, CD1, mouse, pooled intestine microsomes, pH 7.4, intestinal microsomes, 0.5 mg/ml protein, read-out: T1/2 IM mouse
Experimental: (§7) Sample type: pooled liver or intestine microsomes; Species: CD1-mouse (male), human (mixed gender) Time points: 0, 10, 20, 40, 60 min cofactors, and negative control;
(§8) Protein content: 0.5 mg/ml: Replicates: 2 with cofactors, 1 without cofactors; Cofactors: NADPH (1 mM)+UDPGA (1 mM)+15 μg/ml alamethicin Buffer: 0.1 M phosphate buffer pH 7.4, 2 mM MgCl2; Spiking solvent: 50% DMSO ( 1/100 to incubation); Quenching solvent: 2-fold volume of 75% ACN, Control: midazolam disappearance rate
(§9) The study compounds were incubated with liver or intestine microsomes as specified above. The collected samples were stored at −20 C until thawed at room temperature, centrifuged and analyzed as presented below.
(§10) The samples were analysed by UPLC/HR-MS (with data dependent MS/MS mode) to monitor substrate depletion (and later optionally metabolite formation). The analytical method was optimised by using the parent compound for optimum chromatographic properties (peak shape and retention) and mass spectrometric ionisation. Disappearance rate of the study compound was estimated based on relative LC/MS peak areas (o min marked as 100%), and was used to calculate in vitro half-life and clearance (and in vivo extrapolation of hepatic clearance).

[5] = Metabolic stability in human liver microsomes; assay type: in vitro ADME; settings: both sexes, pooled liver microsomes, pH 7.4, 0.5 mg/ml protein, read-out: T1/2 LM human
Experimental: as §7, §8, §9, §10

T1/2 plasma Mouse [2]: 789 min
T1/2 plasma Human [3]: 789 min
half-life at 1 μM [4]: 27.6 min
half-life at 1 μM [5]: 18 min
SMILES: O=c1cc(-c2ccc(CCCC[P+](c3ccccc3)(c3ccccc3)c3ccccc3)cc2)oc2c(O)c(O)ccc12 [SND118, 4-[4-(7,8-dihydroxy-4-oxo-chromen-2-yl)phenyl]butyltriphenylphosphonium bromide]
ROS accumulation (astrocytes cultures): decrease in ROS accumulation
level of TNF-α in response to LPS stimulation (TNF-α): significantly decreased
level of NO in response to LPS stimulation (NO): significantly decreased
ATP content (cell viability) [1]: 72-103%
